The values that follow come from patent EP0062321A2, “New cephem compounds, processes for their preparation, pharmaceutical compositions containing them and their starting compounds” (FUJISAWA PHARMACEUTICAL CO., LTD., priority 1981, dated 1982).

Values after ≈ are worked out from the molar mass of the structure shown.

The subject of the first experiment is Pr.vulgaris IAM-1025. The experiment is described as follows: Minimal inhibitory concentration (MIC) by agar dilution on heart infusion agar. The experiment is classed as cell-based. The settings on record: Proteus vulgaris, IAM1025, HI-agar, one loopful of overnight culture in Trypticase-soy broth (10 viable cells per ml), 37°C for 20 hours. The method, then:
(§1) Now in order to show the utility of the object compounds (I), test data on anti-microbial activity of representative compounds of the present invention are shown below.
(§2) One loopful of an overnight culture of each test strain in Trypticase-soy broth (10 viable cells per ml,) was streaked on heart infusion agar (HI-agar) containing graded concentrations of antibiotics, and the minimal inhibitory concentration (MIC) was expressed in terms of µg/ml after incubation at 37°C for 20 hours.
Consider `CO/N=C(\C(=O)NC1C(=O)N2C(C(=O)[O-])=C(C[n+]3ccccn3)CSC12)c1nsc(N)n1` (stereo not drawn) [(3)], for which 6.25 µg/mL (≈ 13.1 µM) was the least that counted as inhibitory (MIC).

`CCO/N=C(\C(=O)NC1C(=O)N2C(C(=O)[O-])=C(C[n+]3cccn3C)CSC12)c1nsc(N)n1` (stereo not drawn) [(1)] yielded an MIC of 0.78 µg/mL (≈ 1.58 µM).

`CCO/N=C(\C(=O)NC1C(=O)N2C(C(=O)[O-])=C(C[n+]3ccccn3)CSC12)c1nsc(N)n1` (stereo not drawn) [(2)] came in with an MIC of 0.39 µg/mL (≈ 0.795 µM).

Another experiment relates to Pr.mirabilis 140. The description is as above. Type of experiment: cell-based. The settings on record: Proteus mirabilis, HI-agar, one loopful of overnight culture in Trypticase-soy broth (10 viable cells per ml), 37°C for 20 hours. The method, then: as §1, §2
Regarding `CO/N=C(\C(=O)NC1C(=O)N2C(C(=O)[O-])=C(C[n+]3ccccn3)CSC12)c1nsc(N)n1` (stereo not drawn) [(3)], the MIC is 0.39 µg/mL (≈ 0.818 µM).

On to `CCO/N=C(\C(=O)NC1C(=O)N2C(C(=O)[O-])=C(C[n+]3cccn3C)CSC12)c1nsc(N)n1` (stereo not drawn) [(1)], for which the MIC came out at 0.39 µg/mL (≈ 0.792 µM).

The compound `CCO/N=C(\C(=O)NC1C(=O)N2C(C(=O)[O-])=C(C[n+]3ccccn3)CSC12)c1nsc(N)n1` (stereo not drawn) [(2)] yielded an MIC of 0.39 µg/mL (≈ 0.795 µM).
